Source: US8168821B2, “Cyclopropylacetic acid derivatives and use thereof” (Bayer Pharma Aktiengesellschaft, priority 2005, dated 2012)
Each block holds one molecule with its values, some of them ahead of it.

How the values were obtained:
saphenous artery rings = assay: Vasorelaxant effect in vitro (phenylephrine-contracted artery rings); parameters: species or system Rabbits; details: rabbit saphenous artery rings, contraction induced by phenylephrine, concentration reducing contraction by 50%
Description: Rabbits are anesthetized and sacrificed by intravenous injection of thiopental sodium (about 50 mg/kg) and exsanguinated. The saphenous artery is removed and divided into rings 3 mm wide. The rings are mounted singly on in each case a pair of triangular hooks open at the end and made of 0.3 mm-thick special wire (Remanium®). Each ring is placed under an initial tension in 5 ml organ baths with Krebs-Henseleit solution which is at 37° C., is gassed with carbogen and has the following composition: NaCl 119 mM; KCl 4.8 mM; CaCl2×2H2O 1 mM; MgSO4×7H2O 1.4 mM; KH2PO4 1.2 mM; NaHCO3 25 mM; glucose 10 mM; bovine serum albumin 0.001%. The force of contraction is detected with Statham UC2 cells, amplified and digitized via A/D converters (DAS-1802 HC, Keithley Instruments, Munich) and recorded in parallel on chart recorders. Contractions are induced by addition of phenylephrine.
After several (generally 4) control cycles, the substance to be investigated is added in each further run in increasing dosage, and the height of the contraction achieved under the influence of the test substance is compared with the height of the contraction reached in the last preceding run. The concentration necessary to reduce the contraction reached in the preceding control by 50% is calculated from this (IC50). The standard application volume is 5 μl. The proportion of DMSO in the bath solution corresponds to 0.1%.

[1] = target: T1, Heme-containing sGC (recombinant soluble guanylate cyclase) (Rattus norvegicus, UniProt P20595); assay: Stimulation of recombinant soluble guanylate cyclase (sGC) in vitro, heme-containing enzyme; assay type: biochemical
T1 construct: made in house
T1 sequence (P20595 1-619): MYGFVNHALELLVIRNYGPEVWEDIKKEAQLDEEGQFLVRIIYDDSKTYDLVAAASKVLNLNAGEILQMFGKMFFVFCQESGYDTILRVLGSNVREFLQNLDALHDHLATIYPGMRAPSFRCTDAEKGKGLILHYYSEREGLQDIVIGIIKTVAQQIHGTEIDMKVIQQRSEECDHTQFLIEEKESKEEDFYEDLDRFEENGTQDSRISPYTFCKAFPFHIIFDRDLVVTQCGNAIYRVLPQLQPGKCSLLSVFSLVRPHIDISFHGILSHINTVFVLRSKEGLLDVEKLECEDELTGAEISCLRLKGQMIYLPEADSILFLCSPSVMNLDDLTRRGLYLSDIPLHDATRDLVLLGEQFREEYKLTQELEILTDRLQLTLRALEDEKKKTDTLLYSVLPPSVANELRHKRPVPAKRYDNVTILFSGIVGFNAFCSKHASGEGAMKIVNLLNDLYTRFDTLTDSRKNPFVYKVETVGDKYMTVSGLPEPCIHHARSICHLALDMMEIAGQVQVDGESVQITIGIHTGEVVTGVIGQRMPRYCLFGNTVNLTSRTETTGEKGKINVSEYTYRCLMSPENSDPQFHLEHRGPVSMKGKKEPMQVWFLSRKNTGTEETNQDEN
T1 sequence (P19686 1-690 partner): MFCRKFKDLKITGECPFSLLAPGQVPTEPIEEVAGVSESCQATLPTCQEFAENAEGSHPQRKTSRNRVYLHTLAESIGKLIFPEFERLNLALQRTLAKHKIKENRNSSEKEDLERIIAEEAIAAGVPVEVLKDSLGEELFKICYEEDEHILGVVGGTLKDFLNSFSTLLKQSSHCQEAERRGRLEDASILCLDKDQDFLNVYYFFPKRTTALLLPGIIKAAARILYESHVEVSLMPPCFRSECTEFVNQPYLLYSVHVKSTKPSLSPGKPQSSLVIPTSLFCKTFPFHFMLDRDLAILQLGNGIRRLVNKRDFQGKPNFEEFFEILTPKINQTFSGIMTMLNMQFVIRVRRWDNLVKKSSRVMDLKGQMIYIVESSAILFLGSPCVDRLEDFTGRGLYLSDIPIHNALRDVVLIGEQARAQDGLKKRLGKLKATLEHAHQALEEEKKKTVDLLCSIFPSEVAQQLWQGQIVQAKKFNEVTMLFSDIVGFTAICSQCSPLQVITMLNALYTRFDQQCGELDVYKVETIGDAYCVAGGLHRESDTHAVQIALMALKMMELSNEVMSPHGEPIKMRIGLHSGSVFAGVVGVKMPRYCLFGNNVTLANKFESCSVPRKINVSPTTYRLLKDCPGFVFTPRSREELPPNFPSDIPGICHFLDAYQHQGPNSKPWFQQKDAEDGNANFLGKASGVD
Source text: Hoenicka, E. M. Becker, H. Apeler, T. Sirichoke, H. Schroeder, R. Gerzer and J.-P. Stasch, “Purified soluble guanylyl cyclase expressed in a baculovirus/Sf9 system: Stimulation by YC-1, nitric oxide, and carbon oxide”, J. Mol. Med. 77 (1999), 14-23. The heme-free guanylate cyclase is obtained by adding Tween 20 to the sample buffer (0.5% in the final concentration).
(§1) The activation of sGC by a test substance is reported as n-fold stimulation of the basal activity.

[2] = target: T2, Heme-free sGC (recombinant soluble guanylate cyclase) (Rattus norvegicus, UniProt P20595); assay: Stimulation of recombinant soluble guanylate cyclase (sGC) in vitro, heme-free enzyme; assay type: biochemical; details: 10 μM Example 9; heme-free enzyme obtained with 0.5% Tween 20
T2 construct: made in house
T2 sequence (P20595 1-619): T1 sequence (P20595 1-619)
T2 sequence (P19686 1-690 partner): T1 sequence (P19686 1-690 partner)
Description: Investigations on the stimulation of recombinant soluble guanylate cyclase (sGC) by the compounds according to the invention with and without sodium nitroprusside, and with and without the heme-dependent sGC inhibitor 1H-1,2,4-oxadiazole-(4,3a)-quinoxalin-1-one (ODQ) are carried out by the method described in detail in the following reference: M. Hoenicka, E. M. Becker, H. Apeler, T. Sirichoke, H. Schroeder, R. Gerzer and J.-P. Stasch, “Purified soluble guanylyl cyclase expressed in a baculovirus/Sf9 system: Stimulation by YC-1, nitric oxide, and […]”, J. Mol. Med. 77 (1999), 14-23. The heme-free guanylate cyclase is obtained by adding Tween 20 to the sample buffer (0.5% in the final concentration).
as §1

IC50 (saphenous artery rings): 1.02 µM
SMILES: O=C(O)CC1(CCC(/C=C/c2ccccc2OCCCCCc2ccccc2)Cc2ccc(C(=O)O)cc2)CC1 (racemic) [Example 8, 4-((3E)-2-{2-[1-(Carboxymethyl)cyclopropyl]ethyl}-4-{2-[(5-phenylpentyl)oxy]phenyl}but-3-en-1-yl)benzoic acid]

Stimulation (n-fold) of heme-containing sGC with ODQ alone ([1]; 10 μM ODQ, 0.0 μM Example 9): 3.7 n-fold
SMILES: O=c1onc2cnc3ccccc3n12 [ODQ, 1H-1,2,4-oxadiazole-(4,3a)-quinoxalin-1-one, reference compound]

IC50 (saphenous artery rings; Oryctolagus cuniculus): 0.058 µM
SMILES: CC(C)(C)c1ccc(COc2ccccc2/C=C/C(CCC2(CC(=O)O)CC2)Cc2ccc(C(=O)O)cc2)cc1 (racemic) [Example 5]

SMILES: CCN(CC)[N+]([O-])=NO [DEA/NO, 2-(N,N-diethylamino)diazenolate 2-oxide, reference compound]
Stimulation (n-fold) of heme-containing sGC by DEA/NO alone ([1]; 0.1 μM DEA/NO, 0.0 μM Example 9): 101.0 n-fold

IC50 (saphenous artery rings): 0.0058 µM
SMILES: CC(C)(C)c1ccc(COc2ccccc2/C=C/C(CCc2ccc(C(=O)O)cc2)CCC2(CC(=O)O)CC2)cc1 (racemic) [Example 3, 4-((4E)-5-{2-[(4-tert-Butylbenzyl)oxy]phenyl}-3-{2-[1-(carboxymethyl)cyclopropyl]ethyl}pent-4-en-1-yl)benzoic acid]

Stimulation (n-fold) of heme-free sGC, Basal [2]: 21.0 n-fold
IC50 (saphenous artery rings): 0.406 µM
Stimulation (n-fold) of heme-containing sGC, Basal ([1]; 10 μM Example 9, no addition): 8.0 n-fold
Stimulation (n-fold) of heme-containing sGC, +0.1 μM DEA/NO ([1]; 10 μM Example 9 plus 0.1 μM DEA/NO): 109.2 n-fold
Stimulation (n-fold) of heme-containing sGC, +10 μM ODQ ([1]; 10 μM Example 9 plus 10 μM ODQ): 41.0 n-fold
Synergism of combination with NO donor DEA/NO on heme-containing sGC ([1]; combination of Example 9 and DEA/NO): no synergistic effect
Effect of heme-dependent sGC inhibitor ODQ on sGC activation ([1]; with ODQ): not blocked
SMILES: O=C(O)CC1(CCC(/C=C/c2ccccc2OCCCCCc2ccccc2)Cc2ccc(C(=O)O)cc2)CC1 (racemic) [Example 9, 4-((3E)-2-{2-[1-(Carboxymethyl)cyclopropyl]ethyl}-4-{2-[(5-phenylpentyl)oxy]phenyl}but-3-en-1-yl)benzoic acid]

IC50 (saphenous artery rings; Oryctolagus cuniculus): 0.0029 µM
SMILES: CC(C)(C)c1ccc(COc2ccccc2/C=C/C(CCc2ccc(C(=O)O)cc2)CCC2(CC(=O)O)CC2)cc1 (racemic) [Example 2, 4-((4E)-5-{2-[(4-tert-Butylbenzyl)oxy]phenyl}-3-{2-[1-(carboxymethyl)cyclopropyl]ethyl}pent-4-en-1-yl)benzoic acid]

IC50 (saphenous artery rings): 0.033 µM
SMILES: CC(C)(C)c1ccc(COc2ccccc2/C=C/C(CCC2(CC(=O)O)CC2)Cc2ccc(C(=O)O)cc2)cc1 (racemic) [Example 6, 4-((3E)-4-{2-[(4-tert-Butylbenzyl)oxy]phenyl}-2-{2-[1-(carboxymethyl)cyclopropyl]ethyl}but-3-en-1-yl)benzoic acid]
